PubChem BioAssay AID1313 (NMMLSC, 2008)
The source made the active and inactive calls.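 Rule for the calls: active = compounds raising total GFP signal across six hours by more than 15% versus untreated cells; inactive = the rest.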 Peptide text beside a SMILES is read from it. * marks the point of attachment. Cbz = O=C(OCc1ccccc1)*

System: S. cerevisiae Sic1-GFP degradation, flow cytometry time course
Test: inhibition of Sic1-GFP fusion degradation in yeast, secondary assay, flow cytometry, S. cerevisiae (AID 1313)
Settings: stronger effect = higher value; for GFP expression remaining at 240 min: measured here: earlier time point

| SMILES | GFP expression remaining at 360 min | GFP expression remaining at 240 min |
| --- | --- | --- |
| CC(=O)N1C(=O)C(=C2C=C(C)OC(C)=C2)c2ccccc21 | 0.71% (inactive) | 1.3% |
| CC(C)C[C@@H](C=O)NC(=O)[C@H](CC(C)C)NC(=O)[C@H](CC(C)C)NC(=O)OCc1ccccc1 (Cbz-Leu-Leu-Leu-aldehyde) | 1.68% (inactive) | 3.24% |
